In patent US20080207522A1, “Antimicrobial Peptides” (priority 2004, published 2008):
Several values for one entry are separate records, joined by “and”; a condition that tells them apart may be missing. Equal values may be shown once.

Assays:
[1] = system: Pseudomonas aeruginosa strain H1001; test: Assay for the cleaved (free, soluble) peptides from cellulose support, luminescence killing assay; format: cell-based; parameters: key: 1: Peptides showing stronger killing than Bac2A at a 4 to 8-fold higher dilution; Peptides showing stronger killing compared to that of Bac2A at a 4-fold higher dilution; 3: Peptides similar to Bac2A; 4: Peptides similar to Bac2A at the highest concentration but demonstrating weaker killing at a 2-fold dilution; 5: Peptides giving very weak or no killing at a 2-fold dilution; 6: Peptides with weak killing activity at the highest concentration; conditions: free (cleaved) peptides, killing relative to Bac2A
Protocol: Assay for the cleaved peptides from cellulose support. The peptides were cleaved from the dried membrane in an ammonia atmosphere overnight, resulting in free peptides with an amidated C-terminus. The free peptides contained two β-alanines at the C-terminus, in addition to being amidated due to the linker between the cellulose membrane and the peptide sequence. The peptide spots were punched out and transferred in a 96-well microtiter plate. Serial dilutions were carried out from the membrane spots. Four rows were filled with four controls including two with Bac2A and two with of an unrelated peptide. The other eight rows were used for serial dilution steps of the peptide variants. An overnight culture of Pseudomonas aeruginosa strain H1001 was diluted 1:500 using either LB media or 100 mM Tris buffer pH 7.3, 20 mM glucose and was added to the wells (100 μl/well) containing the peptide spots. In all other wells 50 μl were added. The microtiter plate was incubated for 30 min at 37° C. to release the peptides from the membrane. Subsequently, a dilution series were performed and the plate was incubated at 37° C. The luminescence produced by the ATP dependent luciferase system were detected in a time dependent manner using a Tecan Spectra Fluor plus.
(§1) Strains. For the killing assay a mini-Tn5-lux mutant in Pseudomonas aeruginosa H103 was used. The strain is called H1001 and contains a fliC::luxCDABE transcriptional fusion resulting in constitutive expression of luciferase. The bacterial strains used for the antimicrobial activity assays included Escherichia coli UB1005 (F-, nalA37, metB1), a wild-type Salmonella enterica ssp. Typhimurium (S. Typhimurium), wild-type Pseudomonas aeruginosa PAO1 strain H103, Enterococcus faecalis ATCC29212, Staphylococcus aureus ATCC25923, and a clinical isolate of Staphylococcus epidermidis obtained from Dr. D. Speert (Department of Medicine, University of British Columbia). Antifungal activity was tested using a lab isolate of Candida albicans obtained from Dr. B. Dill (Department of Microbiology and Immunology, University of British Columbia).
Peptide synthesis on cellulose is a very effective and inexpensive way to investigate many different peptide variants for one particular activity. However, one of the problems of this technique is the low peptide density synthesized on the membrane, about 280 nmol per cm2. An average peptide spot used for the experiments presented is about 0.3 cm2. Therefore, an assay had to be developed that was sensitive enough to show activity with this amount of peptides. P. aeruginosa H1001 has a reporter system (e.g., a luciferase gene cassette) incorporated into the bacterial chromosome in the fliC gene (involved in flagellar biosynthesis) that is constitutively expressed. It will thus produce light if ATP is present. When this strain is killed, e.g. by peptides, the amount of light produced will decrease due to a decrease in ATP levels in the killed cells. This action can thus be monitored by detecting luminescence in a microtiter plate luminescence reader over time. The volume and amount of cells per well were optimized for this assay. After screening, the killing action was monitored with small amounts of the parent peptide Bac2A (2 μg/ml of free peptide).
Forty-nine scrambled peptides (Bac002-Bac050) were synthesized on the cellulose support and then cleaved by ammonia gas resulting in free peptides with an amidated C-terminus including the linker. The peptide spots were transferred to a 96-well microtiter plate and incubated for 30 min to dissociate the peptides from the cellulose. After serial dilution and addition of strain H1001, luminescence was recorded in a time dependent manner (FIG. 1). All 50 scrambled peptides were compared to Bac2A ([…]-NH2; SEQ ID NO: 1) by this assay (see Table 2). […] Further since all scrambled peptides had some activity, a sequence-specific interaction of the peptides with a receptor or target could be excluded.

[2] = system: Pseudomonas aeruginosa strain H1001 fliC::luxCDABE; test: Luminescence-based assay for the non-cleaved (bound) peptides on cellulose membranes; format: cell-based; conditions: for Luminescence at the given time in minutes: 0 / Luminescence at the given time in minutes: 20 / Luminescence at the given time in minutes: 40 / Luminescence at the given time in minutes: 60 / Luminescence at the given time in minutes: 80 / Luminescence at the given time in minutes: 100 / Luminescence at the given time in minutes: 120 / Luminescence at the given time in minutes: 180 / Luminescence at the given time in minutes: 240: cellulose-bound peptide; for Luminescence at the given time in minutes: 0: 0 min; for Luminescence at the given time in minutes: 20: 20 min; for Luminescence at the given time in minutes: 40: 40 min; for Luminescence at the given time in minutes: 60: 60 min; for Luminescence at the given time in minutes: 80: 80 min; for Luminescence at the given time in minutes: 100: 100 min; for Luminescence at the given time in minutes: 120: 120 min; for Luminescence at the given time in minutes: 180: 180 min; for Luminescence at the given time in minutes: 240: 240 min; for Activity Class bound: uncleaved cellulose-bound peptides; for ability to inhibit light production (luminescence): cellulose bound peptide spots, three hours at 37° C., FIG. 2
Protocol: Luminescence-based MIC assay for the non-cleaved peptides on cellulose membranes. The peptide spots were punched out and transferred to a 96 well microtiter plate with a clear polystyrene bottom and opaque white polypropylene sides (PerkinElmer, Boston, USA). The spots were washed two times with 100% ethanol for 5 min and afterwards equilibrated five times with 100 mM Tris buffer pH 7.3 for 5 min. An overnight culture of Pseudomonas aeruginosa strain H1001 fliC::luxCDABE was diluted 1:50 in new MH medium and incubated at 37° C. to an OD600 of 0.35. This bacterial culture was diluted 1:25 into 10 mM Tris-HCl buffer, pH 7.3 containing 20 mM glucose. Fifty μl of this culture was added to all wells of the microtiter plate and incubated at 37° C. The luminescence of the strain produced by the ATP-dependent luciferase system was detected in a time dependent manner using a Tecan Spectra Fluor plus (Tecan, Austria). At the end of the experiment, the membranes were cleaned by washing the spots two times with 100% ethanol for five minutes. After removing the ethanol the membrane was air-dried.
as §1
The same set of peptides, as well as the reversed sequence of Bac2A-R ([…]; SEQ ID NO: 2166), were synthesized on cellulose and left uncleaved. The production of light was initially compared in wells containing spots of Bac2A, Bac2A-R (with the reversed sequence of Bac2A), the unrelated negative-control peptide, or, as additional controls, only cellulose, or only bacteria (FIG. 2).
As a control, the negative control (unrelated) peptide Bac429 and parent peptide Bac2A (=Bac001) were used in several different wells of the microtiter plate. Luminescence (relative light units; RLU) was measured at 14 different time points, 9 of which are shown. To permit comparison of the data with the free peptide data set, the result for each peptide was classified into six different groups, like the data set with the free peptides (Table 2). […] For the soluble peptides the following classes were established: […]

Sequence | Activity Class Soluble [1] | Luminescence at the given time in minutes: 0 [2] | Luminescence at the given time in minutes: 20 [2] | Luminescence at the given time in minutes: 40 [2] | Luminescence at the given time in minutes: 60 [2] | Luminescence at the given time in minutes: 80 [2] | Luminescence at the given time in minutes: 100 [2] | Luminescence at the given time in minutes: 120 [2] | Luminescence at the given time in minutes: 180 [2] | Luminescence at the given time in minutes: 240 [2] [RLU] | Activity Class bound [2] | ability to inhibit light production (luminescence) [2]
AAVRRRVRLVII [Bac010] | 1 | 4380 RLU | 6719 RLU | 4170 RLU | 1628 RLU | 562 RLU | 129 RLU | 121 RLU | 99 RLU | 56 | 3 (Peptides similar to Bac2A resulting in lux values of less than 500 after 240 min.) | 
ARAILIRVVRRV [Bac025] | 3 | 4354 RLU | 6728 RLU | 3660 RLU | 1127 RLU | 343 RLU | 113 RLU | 115 RLU | 114 RLU | 80 | 3 (Peptides similar to Bac2A resulting in lux values of less than 500 after 240 min.) | 
GATPEDLNQKLS [Bac429, negative control (unrelated) peptide, reference compound] |  | 4295 RLU and 4593 RLU and 4337 RLU and 4761 RLU and 4537 RLU | 7478 RLU and 7525 RLU and 7118 RLU and 7536 RLU and 7275 RLU | 6031 RLU and 6900 RLU and 6593 RLU and 6318 RLU and 6459 RLU | 5770 RLU and 6732 RLU and 6716 RLU and 6102 RLU and 6149 RLU | 5449 RLU and 6701 RLU and 6273 RLU and 5996 RLU and 6092 RLU | 4779 RLU and 6812 RLU and 6453 RLU and 6086 RLU and 5799 RLU | 4438 RLU and 6872 RLU and 6210 RLU and 5899 RLU and 5611 RLU | 3939 RLU and 7674 RLU and 6656 RLU and 6384 RLU and 5656 RLU |  |  | no activity in decreasing luminescence
IILAVRAVRRVR [Bac029] |  | 4538 RLU | 6664 RLU | 5062 RLU | 3963 RLU | 2745 RLU | 1799 RLU | 1279 RLU | 1012 RLU | 942 | 4 (Peptides reducing luminescence (lux) values to between 500 to 1499 after 240 min.) | 
IVVRRRRAALVI [Bac030] |  | 4618 RLU | 7325 RLU | 5921 RLU | 5326 RLU | 4981 RLU | 4418 RLU | 4087 RLU | 3861 RLU | 3679 | 6 (Peptides having residual luminescence (lux) values greater than 3000 after 240 min.) | 
RAVRIVVIRALR [Bac2A-R] |  |  |  |  |  |  |  |  |  |  |  | only a slightly decreased ability to inhibit light production
RRRAIVRVVAIL [Bac023] |  | 3958 RLU | 7783 RLU | 5656 RLU | 3751 RLU | 1827 RLU | 761 RLU | 329 RLU | 123 RLU | 79 | 3 (Peptides similar to Bac2A resulting in lux values of less than 500 after 240 min.) | 
RVLIARVVRAIR [Bac027] |  | 4437 RLU | 6695 RLU | 4991 RLU | 4421 RLU | 4011 RLU | 3545 RLU | 3100 RLU | 3182 RLU | 3513 | 6 (Peptides having residual luminescence (lux) values greater than 3000 after 240 min.) | 
